The values below come from article doi:10.1101/2020.08.04.236091v1 (biorxiv, 2020).

The test concerns the target T1, MdomOR30a (co-expressed with MdomOrco) (Musca domestica, UniProt A0A1I8MP03).
T1 sequence (A0A1I8MP03 1-373): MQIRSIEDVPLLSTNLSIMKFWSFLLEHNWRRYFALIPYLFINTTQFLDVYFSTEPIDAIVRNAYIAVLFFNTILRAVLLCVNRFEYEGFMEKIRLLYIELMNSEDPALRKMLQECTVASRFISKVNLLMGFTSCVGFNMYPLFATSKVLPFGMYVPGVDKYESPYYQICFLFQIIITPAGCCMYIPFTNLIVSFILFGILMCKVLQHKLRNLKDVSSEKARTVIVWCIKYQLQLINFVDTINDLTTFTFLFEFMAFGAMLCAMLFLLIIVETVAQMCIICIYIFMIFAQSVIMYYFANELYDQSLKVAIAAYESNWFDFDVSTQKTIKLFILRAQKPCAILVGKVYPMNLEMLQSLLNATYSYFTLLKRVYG
T1 sequence (I0E1X6 1-478 partner): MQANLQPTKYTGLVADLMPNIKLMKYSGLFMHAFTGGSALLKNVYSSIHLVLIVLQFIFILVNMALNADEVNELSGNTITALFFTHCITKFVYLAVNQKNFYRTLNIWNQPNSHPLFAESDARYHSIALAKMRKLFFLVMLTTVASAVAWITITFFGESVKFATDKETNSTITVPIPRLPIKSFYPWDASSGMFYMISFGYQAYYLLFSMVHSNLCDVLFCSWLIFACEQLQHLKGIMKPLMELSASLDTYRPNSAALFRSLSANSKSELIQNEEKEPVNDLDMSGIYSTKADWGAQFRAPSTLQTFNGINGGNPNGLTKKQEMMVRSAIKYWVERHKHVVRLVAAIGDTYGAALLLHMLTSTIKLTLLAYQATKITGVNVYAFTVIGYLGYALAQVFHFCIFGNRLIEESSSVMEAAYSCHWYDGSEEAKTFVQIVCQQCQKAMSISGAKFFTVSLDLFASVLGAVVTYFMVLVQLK
Kind of test: two-electrode voltage clamp, Xenopus oocytes, odorant-induced currents. The format is cell-based. In general terms: In two-electrode clamp one electrode senses voltage and the other passes current.

By EC50 is commonly meant the concentration at which the effect is half-maximal. Molecule `Cc1[nH]c2ccccc2c1C` [2,3-dimethylindole] returned a half-maximal effective concentration (EC50) of 7.04 µM.

As for `Cc1c[nH]c2ccccc12` [3-methylindole], it took 0.331 µM to reach a half-maximal effect (EC50).

In turn, `c1ccc2[nH]ccc2c1` [indole] showed an EC50 of 5.2 µM.
